Measurements from patent publication US7550484B2, “Chemokine receptor binding heterocyclic compounds with enhanced efficacy” (Genzyme Corporation, priority 2003, dated 2009).
Where “and” joins values, the source holds several entries; their conditions need not be identical. Identical values can stand only once. Like-named read-outs stand apart in the source and are kept apart here.

Experiments:
[1] = system: white blood cell count
Procedure: Eleven human patients having initial white blood cell counts of 4,000-6,500 cells/mm^3 were used in the study. […] Aliquots from this stock solution were added to 50-ml bags of 0.9% saline for intravenous injection in amounts to achieve the desired dosage levels (10 μg/kg-80 μg/kg).
The subjects described in this Example already contained an indwelling peripheral intravenous catheter. […] Blood samples were obtained prior to the dose, and at various times up to 24 hours after dose administration.
Three patients were administered dosages of 10 μg/kg (open circles); 3 patients were administered dosages of 20 μg/kg (solid circles); 3 patients were administered 40 μg/kg (open triangles); and 2 patients were administered 80 μg/kg (closed triangles).

[2] = system: white blood cells, CD34 positive progenitor cells, CFU-GM, BFU-E, CFU-GEMM progenitor cells
Procedure: Five healthy human volunteers having initial white blood cell counts of 4,500-7,500 cells/mm^3 were used in the study. […] Blood samples were obtained via catheter prior to the dose, and at various times up to 24 hours after dosing.
The blood samples were evaluated for total white blood cells, CD34 positive progenitor cells (via FACS analysis) as a percentage of total white blood cells, as well as the absolute numbers per mL and cycling status of granulocyte macrophage (CFU-GM), erythroid (BFU-E), and multipotential (CFU-GEMM) progenitor cells.
All progenitor cell results are based on the scoring of 3 culture plates per assay per point.
For the progenitor cell numbers and cycling status, the numbers of CFU-GM, BFU-E and CFU-GEMM in methylcellulose cultures by stimulation of the cells with 1 Unit (U)/ml recombinant human (rhu) erythropoietin, 100 U/ml rhu granulocyte-macrophage colony stimulating factor (GM-CSF), 100 U/ml rhu interleukin-3 (IL-3) and 50 ng/ml rhu steel factor (SLF=stem cell factor (SCF)). The CFU-GM were also evaluated in agar cultures stimulated with 100 U/ml rhu GM-CSF and 50 ng/ml rhu SLF. For both types of assays, colonies were scored after 14 day incubation in a humidified atmosphere with 5% CO2 and lowered (5%) O2 tension. Cell cycling status of progenitors was measured using a high specific activity tritiated thymidine kill technique as previously described (Broxmeyer, H. E., et al., Exp. Hematol. (1989) 17:455-459).

[3] = system: WBC counts; details: human, in vivo
[4] = system: granulocyte macrophage (CFU-GM), erythroid (BFU-E), and multipotential (CFU-GEMM) progenitor cells; details: for Absolute Number Progenitors Per ML Blood, BFU-E / Absolute Number Progenitors Per ML Blood, CFU-GEMM / Absolute Number Progenitors Per ML Blood, CFU-GM: 1 hour post administration; for Absolute Progenitors Per ML Blood, BFU-E / Absolute Progenitors Per ML Blood, CFU-GEMM / Absolute Progenitors Per ML Blood, CFU-GM: 5 mg/Kg single s.c.; for Absolute Progenitors Per ML Blood, BFU-E / Absolute Progenitors Per ML Blood, CFU-GEMM / Absolute Progenitors Per ML Blood, CFU-GM / Fold Change Compared to Time 0, progenitors BFU-E / Fold Change Compared to Time 0, progenitors CFU-GEMM / Fold Change Compared to Time 0, progenitors GM: methylcellulose culture
Procedure: Progenitors were stimulated to form colonies in vitro with the combination of 1 U/ml rhu Epo, 50 ng/ml rhu SLF, 5% Vol/Vol pokeweed mitogen mouse spleen cell conditioned medium (PWMSCM), and 0.1 mm hemin. Plates were scored 7 days after incubation.

[5] = system: WBC count and circulating CD34+ progenitor/stem cells; details: single dose of 80 μg/kg, cited from earlier work
[6] = system: progenitor cells; details: AMD3100 5 mg/Kg s.c. + MIP-1α 5 μg I.V., 11 hours after rhu G-CSF or saline, 1 hour before blood
Procedure: Groups of mice were randomized to receive control diluent (saline) or G-CSF at a dose of 2.5 μg per mouse, twice a day, for two days via s.c. injection. […] One hour later, the mice were sacrificed and the number of progenitor cells per mL of blood were measured.

[7] = system: bone marrow stem cells; details: administered within hours after coronary ligation, with or without rhG-CSF
Procedure: Adult rats are anesthetized and a thoracotomy is performed. The descending branch of the left coronary artery is ligated and not reperfused. […] Control rats are not treated with the reagents. The animals are monitored at one-week intervals by echocardiography and MRI. The experiment is terminated at 2, 6 to 12 weeks post-surgery. On the day of sacrifice, the hemodynamic functions are analyzed for left ventricle-end diastolic pressure, left ventricle-developed pressure and the rate of rise and fall of left ventricle pressure. The heart is then arrested in diastole and perfused via the abdominal aorta to flush residual blood from the vascular network of the myocardium. This is followed by perfusion of the heart with 10% formalin. Several slices are made through the fixed heart and these are embedded in paraffin and sections. The sections are stained and analyzed by light microscopy to determine the size of the infarct in the treated and control animals. Tissue sections from hearts taken at 2 weeks after surgery are stained with antibodies specific for immature, developing myocyte and blood vessel proteins and analyzed by confocal microscopy. The immunohistochemical analysis involves the identification of transcription factors and surface markers expressed in early stages of myocyte development.

[8] = T = 1 hours after injection, average of 5 donors

## c1cc(CN2CCCNCCNCCCNCC2)ccc1CN1CCCNCCNCCCNCC1 [AMD3100, 1,1′-[1,4-phenylenebis(methylene)]-bis-1,4,8,11-tetra-azacyclotetradecane]
[1]; all patients, 10-80 μg/kg intravenous, succeeding 5-10 hours after administration
  Change of white blood cell count: marked increase in white blood cell count
[1]; one patient, 80 μg/kg intravenous, from 6,000 cells/mm^3
  Peak white blood cell count: 19,000 cells/mm^3
[1]; patient showing the least response, 20 μg/kg intravenous, from about 6,300 cells/mm^3
  White blood cell count after increase: about 9,000 cells/mm^3
[2]; 80 μg/kg single s.c.
  Time of maximal elevation of white blood cell count and CD34 positive progenitor cells post-administration: 6 h
[2]; 80 μg/kg single s.c., 2 Hr, volunteers P1-P5
  Mobilization of white blood cells in individual volunteers: 12.4 ×10^3 WBC's and 21.4 ×10^3 WBC's and 13.5 ×10^3 WBC's
[2]; T = 1, average of 5 donors
  % CHG, CFU-GEMM, methylcellulose culture: 131.8%
  % CHG, CFU-GM, agar culture: 180.8%
  % CHG, CFU-GM, methylcellulose culture: 376.7%
  Fold change, BFU-E, methylcellulose culture, MEAN: 1.99 fold
  Fold change, CFU-GEMM, methylcellulose culture, MEAN: 2.32 fold
  Fold change, CFU-GM, agar culture, MEAN: 2.81 fold
  Fold change, CFU-GM, methylcellulose culture, MEAN: 4.77 fold
[2]; T = 3, average of 5 donors
  % CHG, BFU-E, methylcellulose culture: 221.3%
  % CHG, CFU-GEMM, methylcellulose culture: 332.5%
  % CHG, CFU-GM, agar culture: 754.1%
  % CHG, CFU-GM, methylcellulose culture: 1266.5%
  % CHG, nucleated cellularity PBL-LD: 185.6%
  % CHG, nucleated cellularity PBL-US: 180.2%
  Fold change compared to TIME = 0, nucleated cellularity PBL-LD, MEAN: 2.86 fold
  Fold change compared to TIME = 0, nucleated cellularity PBL-US, MEAN: 2.80 fold
  Fold change, BFU-E, methylcellulose culture, MEAN: 3.21 fold
  Fold change, CFU-GEMM, methylcellulose culture, MEAN: 4.33 fold
  Fold change, CFU-GM, agar culture, MEAN: 8.54 fold
  Fold change, CFU-GM, methylcellulose culture, MEAN: 13.66 fold
[2]; T = 6, average of 5 donors
  % CHG, BFU-E, methylcellulose culture: 500.5%
  % CHG, CFU-GEMM, methylcellulose culture: 907.2%
  % CHG, CFU-GM, agar culture: 1692.8%
  % CHG, CFU-GM, methylcellulose culture: 2070.6%
  % CHG, nucleated cellularity PBL-LD: 266.3%
  % CHG, nucleated cellularity PBL-US: 225.8%
  Fold change compared to TIME = 0, nucleated cellularity PBL-LD, MEAN: 3.66 fold
  Fold change compared to TIME = 0, nucleated cellularity PBL-US, MEAN: 3.26 fold
  Fold change, BFU-E, methylcellulose culture, MEAN: 6.01 fold
  Fold change, CFU-GEMM, methylcellulose culture, MEAN: 10.07 fold
  Fold change, CFU-GM, agar culture, MEAN: 17.93 fold
  Fold change, CFU-GM, methylcellulose culture, MEAN: 21.71 fold
[2]; T = 9, average of 5 donors
  % CHG, BFU-E, methylcellulose culture: 334.4%
  % CHG, CFU-GEMM, methylcellulose culture: 425.4%
  % CHG, CFU-GM, methylcellulose culture: 947.3%
  % CHG, nucleated cellularity PBL-LD: 264.3%
  % CHG, nucleated cellularity PBL-US: 209.4%
  Fold change compared to TIME = 0, nucleated cellularity PBL-LD, MEAN: 3.64 fold
  Fold change compared to TIME = 0, nucleated cellularity PBL-US, MEAN: 3.09 fold
  Fold change, BFU-E, methylcellulose culture, MEAN: 4.34 fold
  Fold change, CFU-GEMM, methylcellulose culture, MEAN: 5.25 fold
  Fold change, CFU-GM, methylcellulose culture, MEAN: 10.47 fold
[2]; T = 9, average of donors
  % CHG, CFU-GM, agar culture: 924.9%
  Fold change, CFU-GM, agar culture, MEAN: 10.25 fold
[2]; T = 24, average of 5 donors
  % CHG, BFU-E, methylcellulose culture: 26.3%
  % CHG, CFU-GEMM, methylcellulose culture: 53.2%
  % CHG, CFU-GM, methylcellulose culture: 55.5%
  % CHG, nucleated cellularity PBL-US: 7.0%
  Fold change compared to TIME = 0, nucleated cellularity PBL-LD, MEAN: 1.05 fold
  Fold change compared to TIME = 0, nucleated cellularity PBL-US, MEAN: 1.07 fold
  Fold change, BFU-E, methylcellulose culture, MEAN: 1.26 fold
  Fold change, CFU-GEMM, methylcellulose culture, MEAN: 1.53 fold
  Fold change, CFU-GM, methylcellulose culture, MEAN: 1.56 fold
[2]; T = 24, average of donors
  % CHG, CFU-GM, agar culture: 108.3%
  Fold change, CFU-GM, agar culture, MEAN: 2.08 fold
[2]; [8]
  % CHG, nucleated cellularity PBL-LD: 86.2%
  % CHG, nucleated cellularity PBL-US: 68.6%
  Fold change compared to TIME = 0, nucleated cellularity PBL-LD, MEAN: 1.86 fold
  Fold change compared to TIME = 0, nucleated cellularity PBL-US, MEAN: 1.69 fold
[2]; all five donors
  Time of maximal fold increases in circulating levels of progenitor cells after injection: 6 h
[3]
  Time until WBC counts returned to baseline after discontinuation of the infusion: 7 days
[4]; 1 mg/kg single s.c.
  Absolute Number Progenitors Per ML Blood, BFU-E: 62 Per ML Blood
  Absolute Number Progenitors Per ML Blood, CFU-GEMM: 27.1 Per ML Blood
  Absolute Number Progenitors Per ML Blood, CFU-GM: 424 Per ML Blood
[4]; 2.5 mg/kg single s.c.
  Absolute Number Progenitors Per ML Blood, BFU-E: 98.9 Per ML Blood
  Absolute Number Progenitors Per ML Blood, CFU-GEMM: 70.6 Per ML Blood
  Absolute Number Progenitors Per ML Blood, CFU-GM: 687.6 Per ML Blood
[4]; 15″
  Absolute Progenitors Per ML Blood, BFU-E: 134.5 Per ML Blood
  Absolute Progenitors Per ML Blood, CFU-GEMM: 90.4 Per ML Blood
  Absolute Progenitors Per ML Blood, CFU-GM: 791.6 Per ML Blood
[4]; 30″
  Absolute Progenitors Per ML Blood, BFU-E: 209.3 Per ML Blood
  Absolute Progenitors Per ML Blood, CFU-GEMM: 113.5 Per ML Blood
  Absolute Progenitors Per ML Blood, CFU-GM: 1805.5 Per ML Blood
[4]; 120″
  Absolute Progenitors Per ML Blood, BFU-E: 102.3 Per ML Blood
  Absolute Progenitors Per ML Blood, CFU-GEMM: 47.6 Per ML Blood
  Absolute Progenitors Per ML Blood, CFU-GM: 828.7 Per ML Blood
[4]; 5 mg/kg single s.c.
  Absolute Number Progenitors Per ML Blood, BFU-E: 92.8 Per ML Blood
  Absolute Number Progenitors Per ML Blood, CFU-GEMM: 69.5 Per ML Blood
  Absolute Number Progenitors Per ML Blood, CFU-GM: 608.4 Per ML Blood
[4]; 10 mg/kg single s.c.
  Absolute Number Progenitors Per ML Blood, BFU-E: 120.5 Per ML Blood
  Absolute Number Progenitors Per ML Blood, CFU-GEMM: 79.8 Per ML Blood
  Absolute Number Progenitors Per ML Blood, CFU-GM: 825.6 Per ML Blood
[4]; Time 2′
  Fold Change Compared to Time 0, progenitors BFU-E: 2.07 fold
  Fold Change Compared to Time 0, progenitors CFU-GEMM: 1.85 fold
  Fold Change Compared to Time 0, progenitors GM: 2.86 fold
[4]; Time 15″
  Fold Change Compared to Time 0, progenitors BFU-E: 2.72 fold
  Fold Change Compared to Time 0, progenitors CFU-GEMM: 3.51 fold
  Fold Change Compared to Time 0, progenitors GM: 2.73 fold
[4]; Time 30″
  Fold Change Compared to Time 0, progenitors BFU-E: 4.24 fold
  Fold Change Compared to Time 0, progenitors CFU-GEMM: 4.41 fold
  Fold Change Compared to Time 0, progenitors GM: 6.23 fold
[5]; 6 hour time point
  Peak increase in circulating CD34+ progenitor/stem cells: 6 fold
[5]
  WBC count: 17,000 /μl
[6]
  Mobilization of progenitor cells in combination with mu MIP-1α: additive to greater than additive
[7]
  Expected effect after induction of cardiac ischemia: mobilizes bone marrow stem cells rapidly
